{"source": "ChEMBL document CHEMBL1201862", "about": "“PubChem BioAssay data set” (2004)", "experiment_in_all_cases": "DTP human tumour cell line panel, 48 h", "key": {"786-0": {"test_system": "786-0"}, "A549": {"test_system": "A549"}, "ACHN": {"test_system": "ACHN"}, "CCRF-CEM": {"test_system": "CCRF-CEM"}, "COLO 205": {"test_system": "COLO 205"}, "DLD-1": {"test_system": "DLD-1"}, "DMS-273": {"test_system": "DMS-273"}, "EKVX": {"test_system": "EKVX"}, "HCC 2998": {"test_system": "HCC 2998"}, "HCT-15": {"test_system": "HCT-15"}, "HL-60": {"test_system": "HL-60"}, "HOP-62": {"test_system": "HOP-62"}, "HT-29": {"test_system": "HT-29"}, "IGROV-1": {"test_system": "IGROV-1"}, "K562": {"test_system": "K562"}, "KM-20L2": {"test_system": "KM-20L2"}, "KM12": {"test_system": "KM12"}, "LOX IMVI": {"test_system": "LOX IMVI"}, "LXFL 529": {"test_system": "LXFL 529"}, "M14": {"test_system": "M14"}, "M19-MEL": {"test_system": "M19-MEL"}, "MOLT-4": {"test_system": "MOLT-4"}, "Malme-3M": {"test_system": "Malme-3M"}, "NCI-H23": {"test_system": "NCI-H23"}, "NCI-H460": {"test_system": "NCI-H460"}, "NCI-H522": {"test_system": "NCI-H522"}, "OVCAR-8": {"test_system": "OVCAR-8"}, "RPMI-8226": {"test_system": "RPMI-8226"}, "SF-539": {"test_system": "SF-539"}, "SK-MEL-28": {"test_system": "SK-MEL-28"}, "SK-OV-3": {"test_system": "SK-OV-3"}, "SN12C": {"test_system": "SN12C"}, "SNB-19": {"test_system": "SNB-19"}, "SNB-75": {"test_system": "SNB-75"}, "SNB-78": {"test_system": "SNB-78"}, "SR": {"test_system": "SR"}, "SW-620": {"test_system": "SW-620"}, "TK-10": {"test_system": "TK-10"}, "U-251": {"test_system": "U-251"}, "UACC-257": {"test_system": "UACC-257"}, "UACC-62": {"test_system": "UACC-62"}, "UO-31": {"test_system": "UO-31"}, "A498": {"test_system": "A498"}, "DMS-114": {"test_system": "DMS-114"}, "HCT-116": {"test_system": "HCT-116"}, "HOP-18": {"test_system": "HOP-18"}, "HOP-92": {"test_system": "HOP-92"}, "NCI-H226": {"test_system": "NCI-H226"}, "OVCAR-3": {"test_system": "OVCAR-3"}, "OVCAR-4": {"test_system": "OVCAR-4"}, "RXF 393": {"test_system": "RXF 393"}, "SF-295": {"test_system": "SF-295"}, "SK-MEL-5": {"test_system": "SK-MEL-5"}, "XF498": {"test_system": "XF498"}}, "note": "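Protocol summary: plate cells (96-well), add compound at 5 concentrations, incubate 48 h, interpolate endpoints linearly. The concentration for 50% growth inhibition is given as GI50.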 Calls of active or inactive are those of the source. No stated cut-off is given here; in the data, active = GI50 up to about 1.1 µM and inactive = higher.", "data": [{"smiles": "COc1cccc(-c2cc(O)c3cc(OC)c(OC)cc3n2)c1", "values": [{"measurement": "GI50", "setting": "786-0", "value": "46.6 µM (inactive)"}, {"measurement": "GI50", "setting": "A549", "value": "47.4 µM (inactive)"}, {"measurement": "GI50", "setting": "ACHN", "value": "> 100 µM (inactive)"}, {"measurement": "GI50", "setting": "CCRF-CEM", "value": "31.8 µM (inactive)"}, {"measurement": "GI50", "setting": "COLO 205", "value": "39.3 µM (inactive)"}, {"measurement": "GI50", "setting": "DLD-1", "value": "42.3 µM (inactive)"}, {"measurement": "GI50", "setting": "DMS-273", "value": "36.3 µM (inactive)"}, {"measurement": "GI50", "setting": "EKVX", "value": "97.7 µM (inactive)"}, {"measurement": "GI50", "setting": "HCC 2998", "value": "87.1 µM (inactive)"}, {"measurement": "GI50", "setting": "HCT-15", "value": 52.6, "unit": "µM"}, {"measurement": "GI50", "setting": "HL-60", "value": "33.1 µM (inactive)"}, {"measurement": "GI50", "setting": "HOP-62", "value": "42.1 µM (inactive)"}, {"measurement": "GI50", "setting": "HT-29", "value": "20.1 µM (inactive)"}, {"measurement": "GI50", "setting": "IGROV-1", "value": "89.3 µM (inactive)"}, {"measurement": "GI50", "setting": "K562", "value": "40.3 µM (inactive)"}, {"measurement": "GI50", "setting": "KM-20L2", "value": "26.6 µM (inactive)"}, {"measurement": "GI50", "setting": "KM12", "value": "24.2 µM (inactive)"}, {"measurement": "GI50", "setting": "LOX IMVI", "value": "64.7 µM (inactive)"}, {"measurement": "GI50", "setting": "LXFL 529", "value": "63.1 µM (inactive)"}, {"measurement": "GI50", "setting": "M14", "value": "37.9 µM (inactive)"}, {"measurement": "GI50", "setting": "M19-MEL", "value": "59.8 µM (inactive)"}, {"measurement": "GI50", "setting": "MOLT-4", "value": "40.6 µM (inactive)"}, {"measurement": "GI50", "setting": "Malme-3M", "value": "35.7 µM (inactive)"}, {"measurement": "GI50", "setting": "NCI-H23", "value": "41.1 µM (inactive)"}, {"measurement": "GI50", "setting": "NCI-H460", "value": "30.3 µM (inactive)"}, {"measurement": "GI50", "setting": "NCI-H522", "value": "19.8 µM (inactive)"}, {"measurement": "GI50", "setting": "OVCAR-8", "value": "45.2 µM (inactive)"}, {"measurement": "GI50", "setting": "RPMI-8226", "value": "45.3 µM (inactive)"}, {"measurement": "GI50", "setting": "SF-539", "value": "26.4 µM (inactive)"}, {"measurement": "GI50", "setting": "SK-MEL-28", "value": "> 100 µM (inactive)"}, {"measurement": "GI50", "setting": "SK-OV-3", "value": "87.3 µM (inactive)"}, {"measurement": "GI50", "setting": "SN12C", "value": "68.7 µM (inactive)"}, {"measurement": "GI50", "setting": "SNB-19", "value": "58.2 µM (inactive)"}, {"measurement": "GI50", "setting": "SNB-75", "value": "34.8 µM (inactive)"}, {"measurement": "GI50", "setting": "SNB-78", "value": "29.9 µM (inactive)"}, {"measurement": "GI50", "setting": "SR", "value": "56.1 µM (inactive)"}, {"measurement": "GI50", "setting": "SW-620", "value": "32 µM (inactive)"}, {"measurement": "GI50", "setting": "TK-10", "value": "51.6 µM (inactive)"}, {"measurement": "GI50", "setting": "U-251", "value": "60.5 µM (inactive)"}, {"measurement": "GI50", "setting": "UACC-257", "value": "28.9 µM (inactive)"}, {"measurement": "GI50", "setting": "UACC-62", "value": "43.6 µM (inactive)"}, {"measurement": "GI50", "setting": "UO-31", "value": "41.6 µM (inactive)"}]}, {"smiles": "COC(=O)C12CCC(CC1=O)C2(C)C", "note": "(stereo not given)", "values": [{"measurement": "GI50", "setting": "786-0", "value": "> 100 µM (inactive)"}, {"measurement": "GI50", "setting": "A498", "value": "> 100 µM (inactive)"}, {"measurement": "GI50", "setting": "A549", "value": "> 100 µM (inactive)"}, {"measurement": "GI50", "setting": "ACHN", "value": "> 100 µM (inactive)"}, {"measurement": "GI50", "setting": "COLO 205", "value": "> 100 µM (inactive)"}, {"measurement": "GI50", "setting": "DLD-1", "value": "> 100 µM (inactive)"}, {"measurement": "GI50", "setting": "DMS-114", "value": "99.5 µM (inactive)"}, {"measurement": "GI50", "setting": "DMS-273", "value": "> 100 µM (inactive)"}, {"measurement": "GI50", "setting": "EKVX", "value": "> 100 µM (inactive)"}, {"measurement": "GI50", "setting": "HCC 2998", "value": "> 100 µM (inactive)"}, {"measurement": "GI50", "setting": "HCT-116", "value": "> 100 µM (inactive)"}, {"measurement": "GI50", "setting": "HCT-15", "value": "> 100", "unit": "µM"}, {"measurement": "GI50", "setting": "HL-60", "value": "> 100 µM (inactive)"}, {"measurement": "GI50", "setting": "HOP-18", "value": "> 100 µM (inactive)"}, {"measurement": "GI50", "setting": "HOP-62", "value": "> 100 µM (inactive)"}, {"measurement": "GI50", "setting": "HOP-92", "value": "> 100 µM (inactive)"}, {"measurement": "GI50", "setting": "HT-29", "value": "> 100 µM (inactive)"}, {"measurement": "GI50", "setting": "IGROV-1", "value": "> 100 µM (inactive)"}, {"measurement": "GI50", "setting": "K562", "value": "> 100 µM (inactive)"}, {"measurement": "GI50", "setting": "KM-20L2", "value": "> 100 µM (inactive)"}, {"measurement": "GI50", "setting": "LOX IMVI", "value": "> 100 µM (inactive)"}, {"measurement": "GI50", "setting": "M14", "value": "> 100 µM (inactive)"}, {"measurement": "GI50", "setting": "MOLT-4", "value": "> 100 µM (inactive)"}, {"measurement": "GI50", "setting": "Malme-3M", "value": "> 100 µM (inactive)"}, {"measurement": "GI50", "setting": "NCI-H226", "value": "> 100 µM (inactive)"}, {"measurement": "GI50", "setting": "NCI-H23", "value": "> 100 µM (inactive)"}, {"measurement": "GI50", "setting": "NCI-H460", "value": "> 100 µM (inactive)"}, {"measurement": "GI50", "setting": "OVCAR-3", "value": "> 100 µM (inactive)"}, {"measurement": "GI50", "setting": "OVCAR-4", "value": "> 100 µM (inactive)"}, {"measurement": "GI50", "setting": "OVCAR-8", "value": "> 100 µM (inactive)"}, {"measurement": "GI50", "setting": "RPMI-8226", "value": "> 100 µM (inactive)"}, {"measurement": "GI50", "setting": "RXF 393", "value": "> 100 µM (inactive)"}, {"measurement": "GI50", "setting": "SF-295", "value": "> 100 µM (inactive)"}, {"measurement": "GI50", "setting": "SF-539", "value": "> 100 µM (inactive)"}, {"measurement": "GI50", "setting": "SK-MEL-28", "value": "> 100 µM (inactive)"}, {"measurement": "GI50", "setting": "SK-MEL-5", "value": "> 100 µM (inactive)"}, {"measurement": "GI50", "setting": "SK-OV-3", "value": "> 100 µM (inactive)"}, {"measurement": "GI50", "setting": "SN12C", "value": "> 100 µM (inactive)"}, {"measurement": "GI50", "setting": "SNB-19", "value": "> 100 µM (inactive)"}, {"measurement": "GI50", "setting": "SNB-75", "value": "40.2 µM (inactive)"}, {"measurement": "GI50", "setting": "SR", "value": "> 100 µM (inactive)"}, {"measurement": "GI50", "setting": "SW-620", "value": "> 100 µM (inactive)"}, {"measurement": "GI50", "setting": "TK-10", "value": "> 100 µM (inactive)"}, {"measurement": "GI50", "setting": "U-251", "value": "> 100 µM (inactive)"}, {"measurement": "GI50", "setting": "UACC-257", "value": "> 100 µM (inactive)"}, {"measurement": "GI50", "setting": "UACC-62", "value": "> 100 µM (inactive)"}, {"measurement": "GI50", "setting": "UO-31", "value": "> 100 µM (inactive)"}, {"measurement": "GI50", "setting": "XF498", "value": "> 100 µM (inactive)"}]}]}
